# From CN104650070A, “二氢嘧啶类化合物及其在药物中的应用” (Guangdong HEC Pharmaceutical Co Ltd, priority 2013, dated 2015)
# System: HBV in HepG2.2.15 cells (HBV HepG2.2.15细胞株)
# Test: In vitro anti-HBV activity in HBV HepG2.2.15 cell line (qPCR of HBV DNA in culture supernatant)
# Format: cell-based
# Conditions: Hepatitis B virus, 192 h, HBV DNA in culture supernatant by qPCR, collected on day 8, top concentration 16.4 μM, 3-fold dilution, 9 points, duplicate wells
row,SMILES,EC50 [nM]
1,"CCOC(=O)C1=C(CN2CCOC[C@H]2C(=O)NS(=O)(=O)C2CC2)NC(c2nccs2)=NC1c1ccc(F)cc1Br (stereo partly drawn) [实施例2, 4-(2-溴-4-氟苯基)-6-(((S)-3-((环丙磺酰基)氨甲酰基)吗啉)甲基)-2-(噻唑-2-基)-1,4-二氢嘧啶-5-甲酸乙酯]",2300
2,"COC(=O)C1=C(CN2CCOC(CCC(=O)NS(=O)(=O)c3ccccc3)C2)NC(c2nccs2)=NC1c1ccc(F)cc1Br (centres unmarked) [实施例17, 4-(2-溴-4-氟苯基)-6-((-2-(3-氧代-3-(苯磺酰胺)丙基)吗啉代)甲基)-2-(噻唑-2-基)-1,4-二氢嘧啶-5-甲酸甲酯]",650
3,"CCOC(=O)C1=C(CN2CCOC[C@H]2C(=O)NCc2ccccc2)NC(c2nccs2)=N[C@H]1c1ccc(F)cc1Br [实施例7, (R)-6-(((S)-3-(苄基氨甲酰基)吗啉代)甲基)-4-(2-溴-4-氟苯基)-2-(噻唑-2-基)-1,4-二氢嘧啶-5-甲酸乙酯]",670
4,"CCOC(=O)C1=C(CN2CCOC[C@H]2C(=O)Nc2ccccc2)NC(c2nccs2)=N[C@H]1c1ccc(Cl)cc1Cl [实施例12, (R)-4-(2,4-二氯苯基)-6-(((S)-3-(苯基氨甲酰基)吗啉代)甲基)-2-(噻唑-2-基)-1,4-二氢嘧啶-5-甲酸乙酯]",720
5,"CCOC(=O)C1=C(CN2CCOC[C@H]2C(=O)Nc2ccccc2)NC(c2nccs2)=N[C@H]1c1ccc(F)cc1Cl [实施例11, (R)-4-(2-氯-4-氟苯基)-6-(((S)-3-(苯基氨甲酰基)吗啉代)甲基)-2-(噻唑-2-基)-1,4-二氢嘧啶-5-甲酸乙酯]",920
6,"CCOC(=O)C1=C(CN2CCOC[C@H]2C(=O)NCc2ccccc2)NC(c2nccs2)=N[C@H]1c1ccc(F)cc1Cl [实施例8, (R)-6-(((S)-3-(苄基氨甲酰基)吗啉代)甲基)-4-(2-氯-4-氟苯基)-2-(噻唑-2-基)-1,4-二氢嘧啶-5-甲酸乙酯]",890
7,"COC(=O)C1=C(CN2CCOC(CCC(=O)NS(=O)(=O)c3ccccc3)C2)NC(c2nccs2)=NC1c1ccc(F)cc1Cl (centres unmarked) [实施例18, 4-(2-氯-4-氟苯基)-6-((2-(3-氧代-3-(苯磺酰胺)丙基)吗啉代)甲基)-2-(噻唑-2-基)-1,4-二氢嘧啶-5-甲酸甲酯]",740
8,"CCOC(=O)C1=C(CN2CCOC[C@H]2C(=O)Nc2nccs2)NC(c2nccs2)=N[C@H]1c1ccc(F)cc1Br [实施例13, (R)-4-(2-溴-4-氟苯基)-2-(噻唑-2-基)-6-(((S)-3-(噻唑-2-基氨甲酰)吗啉代)甲基)-1,4-二氢嘧啶-5-甲酸乙酯]",1400
9,"CCOC(=O)C1=C(CN2CCOC[C@H]2C(=O)NC2CC2)NC(c2nccs2)=N[C@H]1c1ccc(F)cc1Cl [实施例5, (R)-4-(2-氯-4-氟苯基)-6-(((S)-3-(环丙氨甲酰基)吗啉代)甲基)-2-(噻唑-2-基)-1,4-二氢嘧啶-5-甲酸乙酯]",800
10,"CCOC(=O)C1=C(CN2CCOC[C@H]2C(=O)NC2CC2)NC(c2nccs2)=N[C@H]1c1ccc(Cl)cc1Cl [实施例6, (R)-6-(((S)-3-(环丙氨甲酰基)吗啉代)甲基)-4-(2,4-二氯苯基)-2-(噻唑-2-基)-1,4-二氢嘧啶-5-甲酸乙酯]",650
11,"CCOC(=O)C1=C(CN2CCOC(CCC(=O)NCc3ccccc3)C2)NC(c2nccs2)=NC1c1ccc(F)cc1Br (centres unmarked) [实施例3, 6-((2-(3-(苄胺)-3-氧代丙基)吗啉)甲基)-4-(2-溴-4-氟苯基)-2-(噻唑-2-基)-1,4-二氢嘧啶-5-甲酸乙酯]",130
12,"CCOC(=O)C1=C(CN2CCOC[C@H]2C(=O)NCc2ccccc2)NC(c2nccs2)=N[C@H]1c1ccc(Cl)cc1Cl [实施例9, (R)-6-(((S)-3-(苄基氨甲酰)吗啉代)甲基)-4-(2,4-二氯苯基)-2-(噻唑-2-基)-1,4-二氢嘧啶-5-甲酸乙酯]",540
13,"CCOC(=O)C1=C(CN2CCOC(CCC(=O)Nc3ccccc3)C2)NC(c2nccs2)=NC1c1ccc(F)cc1Br (centres unmarked) [实施例14, 4-(2-溴-4-氟苯基)-6-((-2-(3-氧代-3-(苯胺)丙基)吗啉代)甲基)-2-(噻唑-2-基)-1,4-二氢嘧啶-5-甲酸乙酯]",540
14,"CCOC(=O)C1=C(CN2CCOC(CCC(=O)Nc3ccccc3)C2)NC(c2nccs2)=NC1c1ccc(Cl)cc1Cl (centres unmarked) [实施例16, 4-(2,4-二氯苯基)-6-((-2-(3-氧代-3-(苯胺)丙基)吗啉代)甲基)-2-(噻唑-2-基)-1,4-二氢嘧啶-5-甲酸乙酯]",490
15,"CCOC(=O)C1=C(CN2CCOC[C@H]2C(=O)NC2CC2)NC(c2nccs2)=N[C@H]1c1ccc(F)cc1Br [实施例4, (R)-4-(2-溴-4-氟苯基)-6-(((S)-3-(环丙氨甲酰基)吗啉代)甲基)-2-(噻唑-2-基)-1,4-二氢嘧啶-5-甲酸乙酯]",700
16,"COC(=O)C1=C(CN2CCOC(CCC(=O)NS(=O)(=O)c3ccccc3)C2)NC(c2nccs2)=NC1c1ccc(Cl)cc1Cl (centres unmarked) [实施例19, 4-(2,4-二氯苯基)-6-((2-(3-氧代-3-(苯磺酰胺)丙基)吗啉代)甲基)-2-(噻唑-2-基)-1,4-二氢嘧啶-5-甲酸甲酯]",560
17,"CCOC(=O)C1=C(CN2CCOC(CCC(=O)Nc3ccccc3)C2)NC(c2nccs2)=NC1c1ccc(F)cc1Cl (centres unmarked) [实施例15, 4-(2-氯-4-氟苯基)-6-((-2-(3-氧代-3-(苯胺)丙基)吗啉代)甲基)-2-(噻唑-2-基)-1,4-二氢嘧啶-5-甲酸乙酯]",670
18,"CCOC(=O)C1=C(CN2CCOC[C@H]2C(=O)NS(C)(=O)=O)NC(c2nccs2)=NC1c1ccc(F)cc1Br (stereo partly drawn) [实施例1, 4-(2-溴-4-氟苯基)-6-(((S)-3-((甲磺酰基)氨甲酰基)吗啉代)甲基)-2-(噻唑-2-基)-1,4-二氢嘧啶-5-甲酸乙酯]",1000
19,"CCOC(=O)C1=C(CN2CCOC[C@H]2C(=O)Nc2ccccc2)NC(c2nccs2)=N[C@H]1c1ccc(F)cc1Br [实施例10, (R)-4-(2-溴-4-氟苯基)-6-(((S)-3-(苯基氨甲酰基)吗啉代)甲基)-2-(噻唑-2-基)-1,4-二氢嘧啶-5-甲酸乙酯]",800

# System: HBV
# Test: not given
# Conditions: cited from Science, 299 (2003), 893-896; cited from earlier work
row,SMILES,IC50 [nM]
1,Nc1ccn([C@@H]2CS[C@H](CO)O2)c(=O)n1 [拉米夫定],300
